Laboratory results from patent publication US20110014294A1, “STIMULATION OF OCULAR RETROBULBAR BLOOD FLOW USING OCULAR IRRITANTS” (PHARMALIGHT INC., priority 2008, published 2011).

How the values were obtained:
eye = assay: Discomfort and irritation of animals after benzalkonium chloride compositions (Example 2); assay type: in vivo
retrobulbar blood flow = assay: Effect of benzalkonium chloride compositions on retrobulbar blood flow (Example 2); assay type: in vivo; settings: benzalkonium chloride (0.01%, 0.05, 0.1%, 0.2% in isotonic PBS pH 7.4), sufficient amount, as a mist; animals
Description: The effect of compositions including benzalkonium chloride administered in accordance with the teachings herein is performed substantially as described in Example 1. Specifically, four isotonic PBS compositions having pH of 7.4 are prepared having 0.01%, 0.05, 0.1% and 0.2% benzalkonium chloride, respectively, as an ocular irritant.
The compositions are administered to animals and the effect on retrobulbar blood flow is determined, substantially as described above.

Question: With benzalkonium chloride as the substance, how does the Discomfort and irritation (eye; benzalkonium chloride composition as a mist) read?
Answer: The Discomfort and irritation was “little or no substantial discomfort and irritation”.

Question: And the Discomfort and irritation (eye; benzalkonium chloride composition as drops)?
Answer: Its Discomfort and irritation is “cause discomfort and irritation”.

Question: And the “Effect on retinal blood flow” value (retrobulbar blood flow)?
Answer: Its value is “substantial increase in retinal blood flow”.
